Measured values from patent publication US9346769B2, “Tetrazolones as inhibitors of fatty acid synthase” (Infinity Pharmaceuticals, Inc., priority 2010, dated 2016).

biological target: T1, human FASN (Homo sapiens, UniProt P49327); assay: FASN Scintillation Proximity Flashplate Assay; type: biochemical; settings: human FASN purified from SKBR3 cells; unstarred symbols
T1 construct: was purified from SKBR3 cells using procedures modified from those in Jayakumar et al; endogenous in cells; host or cells: SKBR3 human breast cancer cells (ATCC); Endogenous enzyme purified by ammonium sulfate precipitation and a mono Q column
In short: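 Human FASN purified from SKBR3 cells (1 nM final) preincubated with compound 30 min at 37 °C in phosphate buffer pH 7.0, then reacted 2 h at 37 °C with 100 μM acetyl-CoA plus [3H]-acetyl-CoA, 300 μM malonyl-CoA, 2 mM NADPH. Stopped with orlistat; scintillation-proximity CPM gave % inhibition, four-parameter IC50.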

T1 sequence (P49327 whole entry): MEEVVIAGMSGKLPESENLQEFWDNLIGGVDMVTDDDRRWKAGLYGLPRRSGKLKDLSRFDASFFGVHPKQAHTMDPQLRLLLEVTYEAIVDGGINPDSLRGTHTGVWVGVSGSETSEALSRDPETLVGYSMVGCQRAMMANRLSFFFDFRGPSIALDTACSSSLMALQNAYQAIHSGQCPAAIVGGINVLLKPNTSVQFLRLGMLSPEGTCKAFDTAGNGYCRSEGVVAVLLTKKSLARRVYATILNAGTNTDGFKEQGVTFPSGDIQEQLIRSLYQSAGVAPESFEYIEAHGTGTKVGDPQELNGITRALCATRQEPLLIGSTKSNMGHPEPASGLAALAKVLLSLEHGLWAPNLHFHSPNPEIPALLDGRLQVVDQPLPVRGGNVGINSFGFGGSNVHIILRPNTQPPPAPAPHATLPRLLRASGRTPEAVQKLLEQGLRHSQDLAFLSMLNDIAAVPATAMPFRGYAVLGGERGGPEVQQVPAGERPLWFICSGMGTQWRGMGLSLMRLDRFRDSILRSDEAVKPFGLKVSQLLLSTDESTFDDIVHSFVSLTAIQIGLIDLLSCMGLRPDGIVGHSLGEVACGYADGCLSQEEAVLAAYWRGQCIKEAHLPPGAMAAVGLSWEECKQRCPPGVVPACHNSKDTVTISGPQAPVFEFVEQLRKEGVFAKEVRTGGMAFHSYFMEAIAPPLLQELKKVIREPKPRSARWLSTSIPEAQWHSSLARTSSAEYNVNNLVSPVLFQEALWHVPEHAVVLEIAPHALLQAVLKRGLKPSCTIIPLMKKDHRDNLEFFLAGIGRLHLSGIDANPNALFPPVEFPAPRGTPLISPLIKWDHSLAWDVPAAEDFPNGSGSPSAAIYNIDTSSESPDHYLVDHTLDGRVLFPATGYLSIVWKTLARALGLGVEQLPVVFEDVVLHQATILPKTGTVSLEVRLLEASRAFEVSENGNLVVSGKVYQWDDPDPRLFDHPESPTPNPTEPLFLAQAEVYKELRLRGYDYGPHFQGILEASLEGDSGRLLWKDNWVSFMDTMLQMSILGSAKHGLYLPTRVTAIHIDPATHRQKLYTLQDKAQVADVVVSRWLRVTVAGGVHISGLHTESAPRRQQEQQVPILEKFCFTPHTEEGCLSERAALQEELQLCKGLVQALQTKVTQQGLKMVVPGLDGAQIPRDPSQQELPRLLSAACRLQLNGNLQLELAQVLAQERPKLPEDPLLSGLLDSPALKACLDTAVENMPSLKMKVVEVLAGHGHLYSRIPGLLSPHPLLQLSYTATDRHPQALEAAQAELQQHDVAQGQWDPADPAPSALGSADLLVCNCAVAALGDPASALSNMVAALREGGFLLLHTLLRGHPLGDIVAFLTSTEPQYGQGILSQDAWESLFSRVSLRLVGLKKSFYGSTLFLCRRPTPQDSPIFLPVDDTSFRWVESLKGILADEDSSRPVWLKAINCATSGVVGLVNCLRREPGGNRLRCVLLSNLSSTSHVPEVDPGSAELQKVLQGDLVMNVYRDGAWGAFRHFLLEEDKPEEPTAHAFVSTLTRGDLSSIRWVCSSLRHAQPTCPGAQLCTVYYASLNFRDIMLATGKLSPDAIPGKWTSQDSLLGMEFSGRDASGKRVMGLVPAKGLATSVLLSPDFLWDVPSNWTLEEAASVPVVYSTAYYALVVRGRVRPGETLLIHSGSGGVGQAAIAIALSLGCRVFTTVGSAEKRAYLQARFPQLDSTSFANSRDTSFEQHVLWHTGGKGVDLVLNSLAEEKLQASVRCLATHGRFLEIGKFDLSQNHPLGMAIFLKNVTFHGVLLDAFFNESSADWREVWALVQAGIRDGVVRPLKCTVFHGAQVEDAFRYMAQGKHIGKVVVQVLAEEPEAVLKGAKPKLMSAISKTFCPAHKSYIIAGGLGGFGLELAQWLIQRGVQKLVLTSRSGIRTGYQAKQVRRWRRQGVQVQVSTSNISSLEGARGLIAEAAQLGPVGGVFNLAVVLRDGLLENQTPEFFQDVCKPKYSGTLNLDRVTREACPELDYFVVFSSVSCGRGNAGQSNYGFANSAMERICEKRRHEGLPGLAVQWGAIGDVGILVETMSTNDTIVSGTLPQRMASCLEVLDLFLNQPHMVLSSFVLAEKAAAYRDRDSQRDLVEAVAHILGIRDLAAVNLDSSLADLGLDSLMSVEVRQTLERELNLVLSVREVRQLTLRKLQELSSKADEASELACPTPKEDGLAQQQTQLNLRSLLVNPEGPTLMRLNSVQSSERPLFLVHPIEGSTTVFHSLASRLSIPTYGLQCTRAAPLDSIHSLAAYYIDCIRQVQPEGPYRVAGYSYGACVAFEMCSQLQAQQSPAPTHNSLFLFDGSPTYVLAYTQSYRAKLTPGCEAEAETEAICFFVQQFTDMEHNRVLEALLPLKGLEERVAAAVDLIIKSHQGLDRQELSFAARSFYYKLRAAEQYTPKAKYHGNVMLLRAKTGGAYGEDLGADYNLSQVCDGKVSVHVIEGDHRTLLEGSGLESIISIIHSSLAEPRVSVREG

`COc1ccc(N(C(=O)n2nnn(-c3c(F)cccc3F)c2=O)C(C)C)cc1C(=O)OCc1ccccc1` and `CC(C)N(C(=O)n1nnn(-c2c(F)cccc2F)c1=O)c1ccc(N)c(C(=O)OCc2ccccc2)c1` cannot be ordered by IC50: < 15 nM for the first, < 15 nM for the second.

`CCN(C(=O)n1nnn(-c2c(Cl)cccc2Cl)c1=O)c1ccc(C(=O)O)c(Cl)c1` and `CCN(C(=O)n1nnn(-c2c(Cl)cccc2Cl)c1=O)c1ccc(C(=O)O)cc1` cannot be ordered by IC50: < 15 nM for the first, < 15 nM for the second.

`COc1ccc(N(C(=O)n2nnn(-c3c(F)cccc3C(=O)N(C)Cc3ccccc3)c2=O)C(C)C)cc1C(=O)OCc1ccccc1` and `COc1ccc(N(C(=O)n2nnn(-c3c(F)cccc3C(=O)N3CCOCC3)c2=O)C(C)C)cc1C(=O)OCc1ccccc1` cannot be ordered by IC50: < 15 nM for the first, < 15 nM for the second.

First: CCN(C(=O)n1nnn(-c2c(Cl)cccc2Cl)c1=O)c1ccc(OC)cc1
Second: CCN(C(=O)n1nnn(-c2c(Cl)cccc2Cl)c1=O)c1ccc(Cl)c(C(=O)OCc2ccc(OC)cc2)c1
The IC50 of the first is higher: 15 to 100 nM for the first, < 15 nM for the second. The second is the more potent here.

First: CN(Cc1cccc2ccccc12)C(=O)n1nnn(-c2c(F)cccc2F)c1=O
Second: CCN(C(=O)n1nnn(-c2c(F)cccc2F)c1=O)c1ccccc1F
The IC50 of the first is higher: 100 to 200 nM for the first, < 15 nM for the second. The second is the more potent here.

`CCN(C(=O)n1nnn(-c2c(F)cccc2OC)c1=O)c1ccc(C(=O)O)c(OC)c1` and `CCN(C(=O)n1nnn(-c2c(F)cccc2OC)c1=O)c1ccc(OC)c(C(=O)O)c1` fall in the same range of IC50: 15 to 100 nM for the first, 15 to 100 nM for the second.

`CN(C)N(C(=O)n1nnn(-c2c(Cl)cccc2Cl)c1=O)C1=CCCC1` and `CN(C)N(C(=O)n1nnn(-c2ccccc2Cl)c1=O)C1=CCCC1` fall in the same range of IC50: 15 to 100 nM for the first, 15 to 100 nM for the second.

Compared with `COc1ccc(N(C(=O)n2nnn(-c3c(F)cccc3C(=O)N3CCCCC3)c2=O)C(C)C)cc1C(=O)O`, `COc1cc(N(C(=O)n2nnn(-c3c(F)cccc3F)c2=O)C(C)C)ccc1C(=O)O` is lower in IC50: 15 to 100 nM for the first, < 15 nM for the second. The second is the more potent here.

First: CC(C)N(C(=O)n1nnn(-c2c(F)cccc2F)c1=O)c1ccc(C(=O)OCc2ccccc2)cc1Oc1ccccc1
Second: COc1ccc(C(=O)OCc2ccccc2)cc1N(C(=O)n1nnn(-c2c(F)cccc2OC)c1=O)C(C)C
The IC50 of the first is lower: < 15 nM for the first, 15 to 100 nM for the second.

`CC(C)(C)OC(=O)N1CCN(c2ccc(N(C(=O)n3nnn(-c4c(F)cccc4F)c3=O)C3CCCCC3)cc2C(=O)O)CC1` and `CS(=O)(=O)N1CCN(c2ccc(N(C(=O)n3nnn(-c4c(F)cccc4F)c3=O)C3CCCCC3)cc2C(=O)O)CC1` cannot be ordered by IC50: < 15 nM for the first, < 15 nM for the second.

First: COc1cccc(F)c1-n1nnn(C(=O)N(c2ccc(OCCc3ccccc3)c(C(=O)O)c2)C(C)C)c1=O
Second: COc1ccc(N(C(=O)n2nnn(-c3ccccc3OC)c2=O)C(C)C)cc1C(=O)O
The IC50 of the first is lower: 15 to 100 nM for the first, 200 to 5000 nM for the second. The first is the more potent here.

First: CCN(C(=O)n1nnn(-c2c(F)cccc2OC)c1=O)c1ccccc1
Second: COc1cccc(F)c1-n1nnn(C(=O)N(c2ccccc2)[C@H]2CC[C@H](C(=O)O)CC2)c1=O
The IC50 of the first is lower: < 15 nM for the first, 100 to 200 nM for the second.

`CCN(C(=O)n1nnn(-c2ccccc2Oc2ccccc2)c1=O)c1ccc(C(=O)O)cc1` and `CCN(C(=O)n1nnn(-c2c(F)cccc2F)c1=O)c1ccc(C(=O)O)cc1Oc1ccccc1` cannot be ordered by IC50: < 15 nM for the first, < 15 nM for the second.

Compared with `CCN(C(=O)n1nnn(-c2c(F)cccc2C(=O)NCc2ccccc2)c1=O)c1ccccc1Oc1ccccc1`, `CCN(C(=O)n1nnn(-c2c(F)cccc2C(=O)NCc2ccccc2)c1=O)c1ccccc1` is lower in IC50: 15 to 100 nM for the first, < 15 nM for the second. The second is the more potent here.

Compared with `CCCCOc1ccc(C(=O)O)cc1N(CC)C(=O)n1nnn(-c2c(F)cccc2OC)c1=O`, `COCCOc1ccc(N(C(=O)n2nnn(-c3c(F)cccc3OCCOC)c2=O)C2CCCCC2)cc1C(=O)O` is higher in IC50: < 15 nM for the first, 15 to 100 nM for the second.

Compared with `CN(C)N(C(=O)n1nnn(-c2ccccc2Br)c1=O)C1=CCCC1`, `CCN(C(=O)n1nnn(-c2ccccc2Cl)c1=O)C1CCCC1` is higher in IC50: 15 to 100 nM for the first, 200 to 5000 nM for the second.

`O=C(O)[C@@H]1CCCN1c1ccc(N(C(=O)n2nnn(-c3c(F)cccc3F)c2=O)C2CCCCC2)cc1` and `CNC(=O)c1cc(N(C(=O)n2nnn(-c3c(F)cccc3F)c2=O)C2CCCCC2)ccc1OC` cannot be ordered by IC50: < 15 nM for the first, < 15 nM for the second.

Compared with `COc1ccc(N(C(=O)n2nnn(-c3ccccc3C#N)c2=O)C2CCCCC2)cc1C(=O)O`, `COc1ccc(N(C(=O)n2nnn(-c3c(F)cccc3F)c2=O)C2CCCCC2)cc1C(=O)N(C)C` is lower in IC50: 100 to 200 nM for the first, < 15 nM for the second.

`CC(C)N(C(=O)n1nnn(-c2c(F)cccc2F)c1=O)c1ccc(NC(=O)OC(C)(C)C)c(C(=O)O)c1` and `O=C(N1CCCc2cccc(F)c21)n1nnn(-c2c(F)cccc2F)c1=O` cannot be ordered by IC50: < 15 nM for the first, < 15 nM for the second.

Compared with `CCCN(CC1CC1)C(=O)n1nnn(-c2ccccc2Cl)c1=O`, `COCCOCOc1ccc(N(C(=O)n2nnn(-c3c(F)cccc3F)c2=O)C2CCCCC2)cc1C(=O)OCc1ccccc1` is lower in IC50: 200 to 5000 nM for the first, < 15 nM for the second. The second is the more potent here.
